Test results: patent publication US7074789B2, “Kinase inhibitors” (Amgen Inc., priority 1999, dated 2006)

Key:
Assay type in all cases: biochemical
[1] = molecular target: T1, Itk (Homo sapiens, UniProt Q08881); test: Kinase inhibition assay (33P transfer), Itk; conditions: read-out: Itk-1
T1 construct: Kinases are expressed as either kinase domains or full length constructs; made in house
T1 sequence (Q08881 1-620): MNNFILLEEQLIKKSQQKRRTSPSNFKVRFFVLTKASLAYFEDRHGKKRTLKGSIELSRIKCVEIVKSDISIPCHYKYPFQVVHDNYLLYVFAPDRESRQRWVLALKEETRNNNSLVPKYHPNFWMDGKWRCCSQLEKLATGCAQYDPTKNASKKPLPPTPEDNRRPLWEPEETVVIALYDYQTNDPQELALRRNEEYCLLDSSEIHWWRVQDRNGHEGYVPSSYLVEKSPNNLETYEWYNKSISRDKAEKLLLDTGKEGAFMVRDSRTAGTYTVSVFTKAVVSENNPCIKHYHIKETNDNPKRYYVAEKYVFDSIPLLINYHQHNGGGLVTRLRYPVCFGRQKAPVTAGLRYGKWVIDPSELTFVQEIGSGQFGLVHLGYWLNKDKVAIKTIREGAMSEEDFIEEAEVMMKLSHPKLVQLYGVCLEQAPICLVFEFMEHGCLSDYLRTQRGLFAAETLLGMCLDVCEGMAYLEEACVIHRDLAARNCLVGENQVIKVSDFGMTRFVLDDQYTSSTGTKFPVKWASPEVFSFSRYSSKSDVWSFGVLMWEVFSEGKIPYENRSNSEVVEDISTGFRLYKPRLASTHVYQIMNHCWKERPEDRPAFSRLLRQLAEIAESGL
Method in brief: (§1)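 Using immobilised substrate copolymers (poly(Glu,Tyr) 4:1; poly(Arg,Ser) 3:1) and [33P]ATP, purified fusion kinases were allowed to react; plates were then rinsed in 0.5% phosphoric acid and counted in a scintillation detector. Half-maximal inhibition of label transfer defines IC50.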

[2] = molecular target: T2, IGFR-1 (Homo sapiens, UniProt P08069); test: Kinase inhibition assay, IGFR-1 (Table 2); conditions: Table 2, kinase inhibition class
T2 construct: Kinases are expressed as either kinase domains or full length constructs; made in house
T2 sequence (P08069 31-1367): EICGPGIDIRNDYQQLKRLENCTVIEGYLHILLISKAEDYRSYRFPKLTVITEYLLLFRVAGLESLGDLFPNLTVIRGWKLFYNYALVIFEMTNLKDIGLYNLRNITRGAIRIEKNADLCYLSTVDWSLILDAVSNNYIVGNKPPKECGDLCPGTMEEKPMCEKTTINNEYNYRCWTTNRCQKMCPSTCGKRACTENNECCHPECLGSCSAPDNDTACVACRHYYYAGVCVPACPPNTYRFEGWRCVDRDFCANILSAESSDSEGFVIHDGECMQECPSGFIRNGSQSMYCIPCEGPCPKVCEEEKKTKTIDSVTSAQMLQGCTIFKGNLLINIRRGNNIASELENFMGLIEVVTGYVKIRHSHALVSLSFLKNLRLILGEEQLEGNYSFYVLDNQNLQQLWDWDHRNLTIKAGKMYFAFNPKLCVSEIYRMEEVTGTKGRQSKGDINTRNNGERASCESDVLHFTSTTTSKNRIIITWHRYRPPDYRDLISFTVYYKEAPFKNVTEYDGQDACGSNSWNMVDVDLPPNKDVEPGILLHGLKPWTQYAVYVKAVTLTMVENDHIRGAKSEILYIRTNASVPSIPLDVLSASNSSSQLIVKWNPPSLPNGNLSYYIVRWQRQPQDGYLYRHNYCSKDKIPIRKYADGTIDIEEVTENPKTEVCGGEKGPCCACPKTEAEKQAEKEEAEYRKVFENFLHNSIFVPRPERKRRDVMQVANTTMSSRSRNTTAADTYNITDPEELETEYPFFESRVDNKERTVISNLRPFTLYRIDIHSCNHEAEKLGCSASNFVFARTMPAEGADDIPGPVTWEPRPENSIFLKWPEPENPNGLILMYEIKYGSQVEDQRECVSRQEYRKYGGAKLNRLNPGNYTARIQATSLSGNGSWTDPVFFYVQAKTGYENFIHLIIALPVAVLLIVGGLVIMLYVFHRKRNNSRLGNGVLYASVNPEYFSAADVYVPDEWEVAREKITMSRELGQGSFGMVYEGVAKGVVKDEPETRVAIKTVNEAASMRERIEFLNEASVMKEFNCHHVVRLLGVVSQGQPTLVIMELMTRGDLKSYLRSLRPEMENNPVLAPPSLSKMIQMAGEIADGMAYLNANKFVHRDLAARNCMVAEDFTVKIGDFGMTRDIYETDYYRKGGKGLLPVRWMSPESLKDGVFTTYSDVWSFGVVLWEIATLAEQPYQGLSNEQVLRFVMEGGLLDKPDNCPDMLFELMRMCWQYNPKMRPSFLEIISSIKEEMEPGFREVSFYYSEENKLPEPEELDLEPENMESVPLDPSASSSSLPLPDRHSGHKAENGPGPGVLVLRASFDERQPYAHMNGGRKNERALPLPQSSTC

[3] = molecular target: T3, EGFR (Homo sapiens, UniProt P00533); test: Kinase inhibition assay (33P transfer), EGFR; conditions: Table 2, kinase inhibition class; read-out: EGFR-1
T3 construct: Kinases are expressed as either kinase domains or full length constructs; made in house
Method in brief: as §1

[4] = molecular target: T4, PDGFRB (Homo sapiens, UniProt P09619); test: Kinase inhibition assay (33P transfer), PDGFRB; conditions: read-out: PDGFRB-1
T4 construct: Kinases are expressed as either kinase domains or full length constructs; made in house
T4 sequence (P09619 33-1106, species assumed): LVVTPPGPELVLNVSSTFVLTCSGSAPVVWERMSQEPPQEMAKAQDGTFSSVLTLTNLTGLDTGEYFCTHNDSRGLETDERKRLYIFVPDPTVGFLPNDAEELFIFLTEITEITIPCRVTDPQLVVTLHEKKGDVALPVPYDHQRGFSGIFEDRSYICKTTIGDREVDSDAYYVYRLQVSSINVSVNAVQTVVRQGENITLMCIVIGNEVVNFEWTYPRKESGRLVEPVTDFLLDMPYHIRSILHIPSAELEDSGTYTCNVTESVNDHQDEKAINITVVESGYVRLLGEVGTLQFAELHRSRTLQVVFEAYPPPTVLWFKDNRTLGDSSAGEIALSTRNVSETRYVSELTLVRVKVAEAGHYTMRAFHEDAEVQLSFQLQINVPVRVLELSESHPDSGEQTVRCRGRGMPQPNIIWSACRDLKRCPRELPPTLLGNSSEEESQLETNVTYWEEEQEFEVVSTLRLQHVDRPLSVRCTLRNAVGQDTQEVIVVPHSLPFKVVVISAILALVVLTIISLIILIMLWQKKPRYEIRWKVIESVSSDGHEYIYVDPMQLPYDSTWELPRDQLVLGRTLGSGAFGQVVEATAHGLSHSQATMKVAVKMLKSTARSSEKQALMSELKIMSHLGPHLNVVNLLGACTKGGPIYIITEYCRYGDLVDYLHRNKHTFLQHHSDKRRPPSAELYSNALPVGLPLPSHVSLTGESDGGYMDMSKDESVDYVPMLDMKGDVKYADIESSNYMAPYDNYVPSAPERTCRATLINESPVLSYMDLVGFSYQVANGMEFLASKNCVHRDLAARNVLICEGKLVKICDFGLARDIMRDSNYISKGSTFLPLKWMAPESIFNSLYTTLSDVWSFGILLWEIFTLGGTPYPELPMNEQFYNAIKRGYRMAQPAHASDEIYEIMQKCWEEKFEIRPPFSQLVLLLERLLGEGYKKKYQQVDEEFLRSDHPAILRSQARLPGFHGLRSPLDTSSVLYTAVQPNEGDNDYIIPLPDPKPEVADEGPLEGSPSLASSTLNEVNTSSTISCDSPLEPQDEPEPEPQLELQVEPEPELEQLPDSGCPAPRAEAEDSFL

[5] = molecular target: T5, AKT (Homo sapiens, UniProt Q9Y243); test: Kinase inhibition assay (33P transfer), AKT; conditions: Table 2, kinase inhibition class; read-out: AKT3-1
T5 construct: Kinases are expressed as either kinase domains or full length constructs; made in house
T5 sequence (Q9Y243 whole entry, the tested form may be a part): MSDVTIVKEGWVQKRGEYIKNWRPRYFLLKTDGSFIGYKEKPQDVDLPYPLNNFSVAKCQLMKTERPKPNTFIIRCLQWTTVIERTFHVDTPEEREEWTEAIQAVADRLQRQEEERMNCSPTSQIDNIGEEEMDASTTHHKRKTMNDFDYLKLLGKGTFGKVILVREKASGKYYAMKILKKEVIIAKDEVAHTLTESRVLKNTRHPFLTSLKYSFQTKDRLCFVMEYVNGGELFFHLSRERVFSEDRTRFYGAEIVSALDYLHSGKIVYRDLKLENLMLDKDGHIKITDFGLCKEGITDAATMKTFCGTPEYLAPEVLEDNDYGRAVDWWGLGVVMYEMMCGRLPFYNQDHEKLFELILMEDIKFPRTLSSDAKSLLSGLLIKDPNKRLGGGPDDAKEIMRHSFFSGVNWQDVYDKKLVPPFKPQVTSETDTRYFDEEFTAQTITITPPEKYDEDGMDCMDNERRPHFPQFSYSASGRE
Method in brief: (§2)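 Measured by scintillation: radiolabelled phosphate added by tagged recombinant kinases to poly(Glu,Tyr) 4:1 or poly(Arg,Ser) 3:1 attached to microtiter wells, counted once free label was washed away with 0.5% phosphoric acid.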

[6] = molecular target: T6, Lck (Homo sapiens, UniProt P06239); test: Kinase inhibition assay (33P transfer), Lck; conditions: read-out: Lck-1
T6 construct: Kinases are expressed as either kinase domains or full length constructs; made in house
T6 sequence (P06239 whole entry, species assumed, the tested form may be a part): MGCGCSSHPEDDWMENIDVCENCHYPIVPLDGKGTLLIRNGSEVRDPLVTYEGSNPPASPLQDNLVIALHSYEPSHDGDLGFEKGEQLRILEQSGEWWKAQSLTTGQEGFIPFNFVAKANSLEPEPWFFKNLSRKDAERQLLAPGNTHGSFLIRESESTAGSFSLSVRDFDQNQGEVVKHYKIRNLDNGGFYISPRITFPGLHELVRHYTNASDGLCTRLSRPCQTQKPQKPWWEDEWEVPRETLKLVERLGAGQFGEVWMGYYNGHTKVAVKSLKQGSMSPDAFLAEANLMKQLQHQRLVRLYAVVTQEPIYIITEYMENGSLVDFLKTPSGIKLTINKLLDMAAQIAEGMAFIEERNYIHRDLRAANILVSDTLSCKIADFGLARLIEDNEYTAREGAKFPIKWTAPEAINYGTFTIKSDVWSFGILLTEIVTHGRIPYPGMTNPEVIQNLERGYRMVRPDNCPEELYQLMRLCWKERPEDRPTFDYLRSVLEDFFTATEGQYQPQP
Method in brief: as §2

[7] = molecular target: T7, Kdr (Homo sapiens, UniProt P35968); test: Kinase inhibition assay (33P transfer), Kdr; conditions: read-out: KDR-1
T7 construct: Kinases are expressed as either kinase domains or full length constructs; made in house
Method in brief: as §2

[8] = molecular target: T8, c-Met (Homo sapiens, UniProt P08581); test: Kinase inhibition assay (33P transfer), c-Met; conditions: Table 2, kinase inhibition class; read-out: Met-1
T8 construct: Kinases are expressed as either kinase domains or full length constructs; made in house
T8 sequence (P08581 25-1390): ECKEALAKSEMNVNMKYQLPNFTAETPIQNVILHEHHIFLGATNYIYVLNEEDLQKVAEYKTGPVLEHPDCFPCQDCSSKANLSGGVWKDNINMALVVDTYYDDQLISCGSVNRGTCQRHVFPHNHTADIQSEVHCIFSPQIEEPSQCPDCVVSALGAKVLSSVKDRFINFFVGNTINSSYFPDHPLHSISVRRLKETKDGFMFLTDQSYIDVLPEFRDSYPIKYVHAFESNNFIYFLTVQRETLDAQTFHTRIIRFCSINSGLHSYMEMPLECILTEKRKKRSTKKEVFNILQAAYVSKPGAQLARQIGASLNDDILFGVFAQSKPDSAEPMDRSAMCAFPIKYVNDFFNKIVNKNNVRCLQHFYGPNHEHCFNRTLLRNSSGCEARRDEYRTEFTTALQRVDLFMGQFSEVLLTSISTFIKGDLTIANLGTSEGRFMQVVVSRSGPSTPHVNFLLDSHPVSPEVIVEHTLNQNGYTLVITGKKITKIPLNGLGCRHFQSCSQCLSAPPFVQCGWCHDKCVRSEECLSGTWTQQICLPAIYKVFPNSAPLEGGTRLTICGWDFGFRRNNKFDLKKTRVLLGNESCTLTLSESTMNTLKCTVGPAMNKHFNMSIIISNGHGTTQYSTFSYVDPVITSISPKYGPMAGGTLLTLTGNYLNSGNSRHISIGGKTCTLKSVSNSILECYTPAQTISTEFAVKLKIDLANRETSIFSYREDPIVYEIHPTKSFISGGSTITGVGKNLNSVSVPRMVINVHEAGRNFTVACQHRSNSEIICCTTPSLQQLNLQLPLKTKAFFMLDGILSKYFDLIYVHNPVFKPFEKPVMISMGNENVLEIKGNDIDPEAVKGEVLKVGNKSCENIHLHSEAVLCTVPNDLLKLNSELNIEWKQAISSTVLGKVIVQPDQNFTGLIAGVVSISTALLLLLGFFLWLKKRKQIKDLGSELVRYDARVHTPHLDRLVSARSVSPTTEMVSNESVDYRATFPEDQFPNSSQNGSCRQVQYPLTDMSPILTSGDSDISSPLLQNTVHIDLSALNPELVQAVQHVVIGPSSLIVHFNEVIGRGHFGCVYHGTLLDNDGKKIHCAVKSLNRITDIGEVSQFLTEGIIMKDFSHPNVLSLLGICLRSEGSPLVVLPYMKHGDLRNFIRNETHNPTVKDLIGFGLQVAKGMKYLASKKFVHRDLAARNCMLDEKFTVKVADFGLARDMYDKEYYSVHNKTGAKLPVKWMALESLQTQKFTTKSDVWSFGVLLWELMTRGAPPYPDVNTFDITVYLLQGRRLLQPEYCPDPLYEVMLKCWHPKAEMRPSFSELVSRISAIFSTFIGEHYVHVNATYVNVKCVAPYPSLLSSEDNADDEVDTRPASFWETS
Method in brief: as §1

[9] = molecular target: T9, ErbB2 (Homo sapiens, UniProt P04626); test: Kinase inhibition assay (33P transfer), ErbB2; conditions: read-out: ErbB2-2
T9 construct: Kinases are expressed as either kinase domains or full length constructs; made in house
Text: The inhibitor compounds described herein are screened in the following manner. Kinases suitable for use in the following protocol to determine kinase activity of the compounds described herein include, -but are not limited to: Lck, Lyn, Src, Fyn, Syk, Zap-70, Itk, Tec, Btk, EGFR, ErbB2, Kdr, Flt-1, Flt-3, Tek, c-Met, InsR, and AKT.
Kinases are expressed as either kinase domains or full length constructs fused to glutathione S-transferase (GST) or polyHistidine tagged fusion proteins in either E. colior Baculovirus-High Five expression systems. They are purified to near homogeneity by affinity chromatography essentially as previously described (Lehr et al., 1996; Gish et al., 1995). In some instances, kinases are co-expressed or mixed with purified or partially purified regulatory polypeptides prior to measurement of activity.
Kinase activity and inhibition are measured essentially by established protocols (Braunwalder et al., 1996). Briefly, The transfer of ^33PO4 from ATP to the synthetic substrates poly(Glu, Tyr) 4:1 or poly(Arg, Ser) 3:1 attached to the bioactive surface of microtiter plates serves as the basis to evaluate enzyme activity. After an incubation period, the amount of phosphate transferred is measured by first washing the plate with 0.5% phosphoric acid, adding liquid scintillant, and then counting in a liquid scintillation detector. The IC50 is determined by the concentration of compound that causes a 50% reduction in the amount of […] incorporated onto the substrate bound to the plate.

[10] = molecular target: T10, Zap-70 (Homo sapiens, UniProt P43403); test: Kinase inhibition assay (33P transfer), Zap-70; conditions: read-out: Zap-1
T10 construct: Kinases are expressed as either kinase domains or full length constructs; made in house
T10 sequence (P43403 1-619): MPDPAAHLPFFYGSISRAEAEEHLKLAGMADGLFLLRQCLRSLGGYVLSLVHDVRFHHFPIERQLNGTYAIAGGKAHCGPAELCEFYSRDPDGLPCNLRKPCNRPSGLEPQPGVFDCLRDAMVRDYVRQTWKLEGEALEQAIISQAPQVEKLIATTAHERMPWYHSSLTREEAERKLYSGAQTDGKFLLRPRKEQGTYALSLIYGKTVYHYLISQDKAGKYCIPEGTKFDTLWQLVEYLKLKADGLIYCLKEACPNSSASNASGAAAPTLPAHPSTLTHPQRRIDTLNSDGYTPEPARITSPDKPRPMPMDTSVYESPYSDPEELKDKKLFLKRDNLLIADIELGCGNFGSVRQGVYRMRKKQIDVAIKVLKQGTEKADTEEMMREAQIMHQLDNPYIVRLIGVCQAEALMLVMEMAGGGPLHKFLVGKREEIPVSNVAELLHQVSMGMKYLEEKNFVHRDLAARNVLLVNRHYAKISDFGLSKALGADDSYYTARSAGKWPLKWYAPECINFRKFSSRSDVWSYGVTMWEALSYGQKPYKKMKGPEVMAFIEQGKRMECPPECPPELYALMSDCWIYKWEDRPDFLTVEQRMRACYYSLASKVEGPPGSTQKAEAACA
Method in brief: as §2

[11] = molecular target: T11, Tek (Homo sapiens, UniProt Q02763); test: Kinase inhibition assay (33P transfer), Tek; conditions: read-out: Tek-1
T11 construct: Kinases are expressed as either kinase domains or full length constructs; made in house
Method in brief: as §1

Row | IC50 [1] [µM] | IC50 [2] [µM] | IC50 [3] [µM] | IC50 [4] [µM] | IC50 [5] [µM] | IC50 [6] [µM] | IC50 [7] [µM] | IC50 [8] [µM] | IC50 [9] [µM] | IC50 [10] [µM] | IC50 [11] [µM] | Structure (SMILES)
1 | > 10.2 | 0.91 to 5.46 | < 0.91 | 0.91 to 5.46 | > 10.2 | 0.91 to 5.46 | 7.97 to 10.2 | > 10.2 | 0.91 to 5.46 | > 10.2 |  | COc1cc(Nc2ncnc(Nc3cc(F)cc(C(F)(F)F)c3)n2)cc(OC)c1OC [Compound 632]
2 | 0.923 to 5.54 | < 0.923 | 0.923 to 5.54 |  | > 10.4 | < 0.923 | 0.923 to 5.54 | < 0.923 | 0.923 to 5.54 | > 10.4 | > 10.4 | COc1cc(Nc2ncnc(Nc3cc(-c4cccc(C)c4)n[nH]3)n2)cc(OC)c1OC [Compound 1001]
3 | > 10.4 | > 10.4 | < 0.927 | 5.56 to 8.11 | > 10.4 | 0.927 to 5.56 | 0.927 to 5.56 | 0.927 to 5.56 | < 0.927 | > 10.4 |  | COc1ccc(Nc2ncnc(N3CCCc4ccc(C(F)(F)F)cc43)n2)cc1OC [Compound 535]
4 | > 11.2 | 0.995 to 5.97 | < 0.995 | < 0.995 | > 11.2 | < 0.995 | 0.995 to 5.97 | > 11.2 | < 0.995 | > 11.2 |  | COc1cc(Nc2ncnc(Nc3cc(Cl)ccc3C)n2)cc(OC)c1OC [Compound 625]
5 | > 12.1 | > 12.1 | 6.46 to 9.42 | 9.42 to 12.1 | > 12.1 | > 12.1 | > 12.1 | > 12.1 | 6.46 to 9.42 | > 12.1 |  | CC1CCc2ccccc2N1c1ncnc(N2c3ccccc3CCC2C)n1 (centres unmarked) [Compound 622]
6 | > 12.8 | > 12.8 | < 1.14 | 6.82 to 9.95 | 9.95 to 12.8 | > 12.8 | > 12.8 | > 12.8 | > 12.8 | 9.95 to 12.8 |  | CN(c1cccc(Cl)c1)c1ncnc(Nc2ccc3cn[nH]c3c2)n1 [Compound 718]
7 | 0.886 to 5.32 | < 0.886 | > 9.97 | 5.32 to 7.75 | > 9.97 | 5.32 to 7.75 | < 0.886 | 7.75 to 9.97 | > 9.97 | > 9.97 |  | Nc1nc2ccccc2n1-c1ncnc(Nc2cccc(CC(=O)NCc3ccccn3)c2)n1 [Compound 956]
8 | > 11.3 | 1.01 to 6.04 | 1.01 to 6.04 | > 11.3 | > 11.3 | > 11.3 | 1.01 to 6.04 | 1.01 to 6.04 | > 11.3 | 1.01 to 6.04 |  | c1ccc(Cn2ncc3cc(Nc4ncnc(NCc5ccco5)n4)ccc32)cc1 [Compound 728]
